This is an account of results in ChEMBL document CHEMBL1125938, “A novel targeted delivery system utilizing a cephalosporin-oncolytic prodrug activated by an antibody -lactamase conjugate for the treatment of cancer” (Bioorg Med Chem Lett, 1991).

The test system of assay [1] is LS174T. As to the kind of experiment: Compound was evaluated for in vitro cytotoxicity after 48 hour, against CEA-bearing LS174T human colon carcinoma cells, in absence of beta-L-CEM 231 conjugate. Type of assay: functional, cell-based.
The subject of assay [2] is LS174T. Description: Compound was evaluated for in vitro cytotoxicity after 6 hour, against CEA-bearing LS174T human colon carcinoma cells, in absence of beta-L-CEM 231 conjugate. Type of assay: functional, cell-based.

In brackets after ≈: the same amount, converted by molar mass. Bounds are passed on as bounds.

What is called IC50 is the concentration that inhibits the measured activity by half. Consider `CC[C@]1(O)C[C@@H]2CN(CCc3c([nH]c4ccccc34)[C@@](C(=O)OC)(c3cc4c(cc3OC)N(C)C3[C@]45CCN4CC=C[C@@](CC)([C@@H](O)[C@]3(O)C(=O)NCCS)[C@H]45)C2)C1` (stereo not given in full), for which the IC50 is less than 0.001 µg/mL in assay [1] and 0.26 µg/mL (≈ 0.319 µM) in assay [2] (Homo sapiens, LS174T, 6 h, read-out: IC50).

In assay [2] (ls174t), `CC[C@]1(O)C[C@@H]2CN(CCc3c([nH]c4ccccc34)[C@@](C(=O)OC)(c3cc4c(cc3OC)N(C)C3[C@]45CCN4CC=C[C@@](CC)([C@@H](O)[C@]3(O)C(=O)NCCSCC3=C(C(=O)O)N6C(=O)[C@@H](NC(=O)Cc7cccs7)[C@H]6SC3)[C@H]45)C2)C1` (single isomer, unassigned; (+)) showed an IC50 of 0.26 µg/mL (≈ 0.226 µM). Consider `CC[C@]1(O)C[C@@H]2CN(CCc3c([nH]c4ccccc34)[C@@](C(=O)OC)(c3cc4c(cc3OC)N(C)C3[C@]45CCN4CC=C[C@@](CC)([C@@H](O)[C@]3(O)C(=O)NCCSCC3=C(C(=O)O)N6C(=O)[C@@H](NC(=O)Cc7cccs7)[C@H]6SC3)[C@H]45)C2)C1` (single isomer, unassigned; (-)), for which the IC50 is less than 0.001 µg/mL in assay [1] and 2.15 µg/mL (≈ 1.87 µM) in assay [2] (ls174t).
